System: mealybug, Pseudococcus spp.
Test: Field efficacy on mealy bug, small-plot trials on cotton (Trials A, B, C)
Type: in vivo
Conditions: Sulfoxaflor 50 g/ha, Chlorpyrifos 500 g/ha, mixture 50 + 500 g/ha
Procedure: Field Efficacy on Mealy Bug
Applications were made to cotton, Gossypium hirsutum, using small-plot efficacy methods. Chemicals were diluted in water and all treatments were applied using a backpack sprayer calibrated to deliver 500 liters of spray per hectare. Experimental plots measured 5 by 10 meters and each treatment was replicated three times in each trial. Prior to treatment, 20 plants that were uniformly infested with mealybug, Pseudococcus spp., were marked in each experimental plot. At the specified intervals after treatment, the severity of mealybug infestation on the marked plants was rated using a 0-4 scale, where 0=no infestation and 4=stunted, blackened plant. The score for each plant in each experimental plot was summed to provide a total severity score for the plot. Data were transformed to percent control relative to the untreated plots, then subjected to analysis of variance, and means were separated using Tukey's HSD (p=0.1). Expected control was calculated using the method of Colby and compared to observed control. See the Table Section for the results of the Field Trials.

CCOP(=S)(OCC)Oc1nc(Cl)c(Cl)cc1Cl [Chlorpyrifos]
% Control (Trial A, 3 DAT): 35.64% | % Control (Trial A, 7 DAT): 43.34% | % Control (Trial A, 11 DAT): 43.60% | % Control (Trial B, 3 DAT): 35.23% | % Control (Trial B, 7 DAT): 38.80% | % Control (Trial B, 11 DAT): 33.51% | % Control (Trial B, 14 DAT): 26.89% | % Control (Trial C, 4 DAT): 36.44% | % Control (Trial C, 8 DAT): 33.37% | % Control (Trial C, 11 DAT): 28.24% | % Control (Trial C, 14 DAT): 23.03%

CC(c1ccc(C(F)(F)F)nc1)S(C)(=O)=NC#N (stereo not shown) [Sulfoxaflor]
% Control (Trial A, 3 DAT): 17.56% | % Control (Trial A, 7 DAT): 21.65% | % Control (Trial A, 11 DAT): 20.68% | % Control (Trial B, 3 DAT): −2.66% | % Control (Trial B, 7 DAT): 7.81% | % Control (Trial B, 11 DAT): 7.81% | % Control (Trial B, 14 DAT): 5.32% | % Control (Trial C, 4 DAT): 7.39% | % Control (Trial C, 8 DAT): 9.19% | % Control (Trial C, 11 DAT): 4.76% | % Control (Trial C, 14 DAT): 2.49%

— US8685423B2, “Controlling mealybugs” (priority 2011, dated 2014)
